Assay results taken from patent publication US20230265151A1, “GIP/GLP1 CO-AGONIST COMPOUNDS” (priority 2020, published 2023).

Legend:
[1] = target: T1, hGCGR (Homo sapiens, UniProt P47871); assay: Functional cAMP formation (HTRF) in HEK-293 clonal cells expressing hGCGR, 0.1% bovine casein, without or with 1.0% human serum albumin; format: cell-based; conditions: cAMP, incubated at 37° C., 0.1% bovine casein (no human serum albumin); geometric mean; read-out: hGCGR EC50, nM (SEM, n)
T1 construct: expressed in transfected cells
How it was run: (§1)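 Readings of the HTRF 665/620 nm ratio, which falls as cAMP rises, were converted to nM cAMP using a standard curve after 30 min peptide exposure at 37° C.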

[2] = target: T2, hGIPR (Homo sapiens, UniProt P48546); assay: Functional cAMP formation (HTRF) in HEK-293 clonal cells expressing hGIPR, 0.1% bovine casein, without or with 1.0% human serum albumin; format: cell-based; conditions: for EC50: cAMP, incubated at 37° C., 0.1% bovine casein (no human serum albumin), geometric mean, read-out: hGIPR EC50, nM (SEM, n); for Emax: HEK293, percent of maximal response to GIP(1-42)NH2, 37° C., 0.1% bovine casein, arithmetic mean, read-out: hGIPR Emax, % ± SEM
T2 construct: expressed in transfected cells
T2 sequence (P48546 22-466): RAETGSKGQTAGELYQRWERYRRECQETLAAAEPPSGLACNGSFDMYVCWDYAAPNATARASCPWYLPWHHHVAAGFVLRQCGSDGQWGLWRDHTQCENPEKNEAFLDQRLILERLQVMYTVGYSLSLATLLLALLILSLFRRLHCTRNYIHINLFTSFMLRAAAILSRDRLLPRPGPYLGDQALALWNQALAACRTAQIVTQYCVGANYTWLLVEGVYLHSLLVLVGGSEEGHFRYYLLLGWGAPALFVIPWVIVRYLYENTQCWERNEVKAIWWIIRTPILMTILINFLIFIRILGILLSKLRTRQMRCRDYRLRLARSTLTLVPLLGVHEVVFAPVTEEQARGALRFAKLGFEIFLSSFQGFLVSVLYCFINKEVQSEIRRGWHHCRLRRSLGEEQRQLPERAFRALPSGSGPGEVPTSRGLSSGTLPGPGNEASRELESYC
How it was run: as §1

T1 sequence (P47871 26-477): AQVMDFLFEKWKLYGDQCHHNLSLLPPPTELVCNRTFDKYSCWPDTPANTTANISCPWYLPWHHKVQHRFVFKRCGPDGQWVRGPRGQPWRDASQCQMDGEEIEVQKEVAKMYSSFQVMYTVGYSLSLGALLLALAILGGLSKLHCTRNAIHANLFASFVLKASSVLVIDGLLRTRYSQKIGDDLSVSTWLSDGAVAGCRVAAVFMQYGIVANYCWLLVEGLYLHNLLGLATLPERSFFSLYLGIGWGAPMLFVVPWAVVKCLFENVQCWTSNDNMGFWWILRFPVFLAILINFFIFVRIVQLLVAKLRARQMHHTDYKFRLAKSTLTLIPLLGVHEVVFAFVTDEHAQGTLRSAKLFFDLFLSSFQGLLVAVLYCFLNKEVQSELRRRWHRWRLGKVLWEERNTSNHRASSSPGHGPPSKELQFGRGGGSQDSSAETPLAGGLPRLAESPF

CC[C@H](C)[C@H](NC(=O)[C@H](CC(C)C)NC(=O)[C@](C)(Cc1ccc(O)cc1)NC(=O)[C@@H](CCC(=O)O)NC(=O)[C@@H](NC(=O)[C@H](Cc1ccccc1)NC(=O)[C@H](CCC(=O)O)NC(=O)C(C)(C)NC(=O)[C@H](CCC(N)=O)NC(=O)[C@H](C)NC(=O)[C@H](CCCCNC(=O)COCCOCCNC(=O)COCCOCCNC(=O)CC[C@H](NC(=O)CCCc1ccc(C(C)(C)C)cc1)C(=O)O)NC(=O)[C@H](CCCN)NC(=O)[C@H](CC(=O)O)NC(=O)[C@H](CC(C)C)NC(=O)[C@](C)(CC(C)C)NC(=O)[C@@H](NC(=O)[C@H](CO)NC(=O)[C@H](Cc1ccncc1)NC(=O)[C@H](CC(=O)O)NC(=O)[C@H](CO)NC(=O)[C@@H](NC(=O)[C@](C)(Cc1ccccc1F)NC(=O)[C@@H](NC(=O)CNC(=O)[C@H](CCC(=O)O)NC(=O)C(C)(C)NC(=O)[C@@H](N)Cc1ccc(O)cc1)[C@@H](C)O)[C@@H](C)O)[C@@H](C)CC)[C@@H](C)CC)C(=O)N[C@@H](CCC(=O)O)C(=O)NCC(=O)N[C@@H](CCCCNC(=O)COCCOCCNC(=O)COCCOCCNC(=O)CC[C@H](NC(=O)CCCc1ccc(C(C)(C)C)cc1)C(=O)O)C(=O)N1CCC[C@H]1C(=O)N[C@@H](CO)C(=O)N[C@@H](CO)C(=O)NCC(=O)N[C@@H](C)C(=O)N1CCC[C@H]1C(=O)N1CCC[C@H]1C(=O)N1CCC[C@H]1C(=O)N[C@@H](CO)C(N)=O [Example 134]
EC50 [1]: > 9950 nM | EC50 [2]: 0.0238 nM

CCCCCCCCCCCC(=O)N[C@@H](CCC(=O)NCCOCCOCC(=O)NCCOCCOCC(=O)NCCCC[C@H](NC(=O)[C@H](CCCN)NC(=O)[C@H](CC(=O)O)NC(=O)[C@H](CC(C)C)NC(=O)[C@](C)(CC(C)C)NC(=O)[C@@H](NC(=O)[C@H](CO)NC(=O)[C@H](CCCCNC(=O)COCCOCCNC(=O)COCCOCCNC(=O)CC[C@H](NC(=O)CCCCCCCCCCC)C(=O)O)NC(=O)[C@H](CC(=O)O)NC(=O)[C@H](CO)NC(=O)[C@@H](NC(=O)[C@](C)(Cc1ccccc1F)NC(=O)[C@@H](NC(=O)CNC(=O)[C@H](CCC(=O)O)NC(=O)C(C)(C)NC(=O)[C@@H](N)Cc1ccc(O)cc1)[C@@H](C)O)[C@@H](C)O)[C@@H](C)CC)C(=O)N[C@@H](C)C(=O)N[C@@H](CCC(N)=O)C(=O)NC(C)(C)C(=O)N[C@@H](CCC(=O)O)C(=O)N[C@@H](Cc1ccccc1)C(=O)N[C@H](C(=O)N[C@H](CCC(=O)O)C(=O)N[C@@](C)(Cc1ccc(O)cc1)C(=O)N[C@@H](CC(C)C)C(=O)N[C@H](C(=O)N[C@@H](CCC(=O)O)C(=O)NCC(=O)NCC(=O)N1CCC[C@H]1C(=O)N[C@@H](CO)C(=O)N[C@@H](CO)C(=O)NCC(=O)N[C@@H](C)C(=O)N1CCC[C@H]1C(=O)N1CCC[C@H]1C(=O)N1CCC[C@H]1C(=O)N[C@@H](CO)C(N)=O)[C@@H](C)CC)[C@@H](C)CC)C(=O)O [Example 136]
EC50 [1]: > 9950 nM | Emax [2]: 97.4 ± 4.23%

CC[C@H](C)[C@H](NC(=O)[C@H](CC(C)C)NC(=O)[C@](C)(Cc1ccc(O)cc1)NC(=O)[C@@H](CCC(=O)O)NC(=O)[C@@H](NC(=O)[C@H](Cc1ccccc1)NC(=O)[C@H](CCC(=O)O)NC(=O)C(C)(C)NC(=O)[C@H](CCC(N)=O)NC(=O)[C@H](C)NC(=O)[C@H](CCCCNC(=O)COCCOCCNC(=O)COCCOCCNC(=O)CC[C@H](NC(=O)CCCCCCCCCCCCC(=O)O)C(=O)O)NC(=O)[C@H](CCCN)NC(=O)[C@H](CC(=O)O)NC(=O)[C@H](CC(C)C)NC(=O)[C@](C)(CC(C)C)NC(=O)[C@@H](NC(=O)[C@H](CO)NC(=O)[C@H](Cc1ccco1)NC(=O)[C@H](CC(=O)O)NC(=O)[C@H](CO)NC(=O)[C@@H](NC(=O)[C@](C)(Cc1ccccc1F)NC(=O)[C@@H](NC(=O)CNC(=O)[C@H](CCC(=O)O)NC(=O)C(C)(C)NC(=O)[C@@H](N)Cc1ccc(O)cc1)[C@@H](C)O)[C@@H](C)O)[C@@H](C)CC)[C@@H](C)CC)C(=O)N[C@@H](CCC(=O)O)C(=O)NCC(=O)NCC(=O)N[C@@H](CCCCNC(=O)COCCOCCNC(=O)COCCOCCNC(=O)CC[C@H](NC(=O)CCCCCCCCCCCCC(=O)O)C(=O)O)C(=O)N[C@@H](CO)C(=O)N[C@@H](CO)C(=O)NCC(=O)N[C@@H](C)C(=O)N1CCC[C@H]1C(=O)N1CCC[C@H]1C(=O)N1CCC[C@H]1C(=O)N[C@@H](CO)C(N)=O [Example 143]
EC50 [1]: > 9950 nM | Emax [2]: 95% | EC50 [2]: 0.022 nM
